According to US20150150909A1, “ANTI-GLYCATION METHODS AND COMPOSITIONS” (CORE INTELLECTUAL PROPERTIES HOLDINGS, LLC, priority 2007, published 2015):
Several values for one entry are separate records, joined by “and”; a condition that tells them apart may be missing. Identical values can stand only once.

Tests used:
[1] = tested on: Normal human dermal fibroblasts (NHDF); assay: AGE in extracellular matrix collagen of glucose-treated NHDF, anti-AGE antibody spot blot (Example 2); assay type: cell-based; conditions: 1 mg/ml; for Intensity (AU): single replicates, hydrochloride
Method: Normal human dermal fibroblasts (NHDF) were cultivated in conditions that allow the synthesis of high amounts of extracellular matrix (ECM). NHDF were grown to confluence in normal medium in adequate format. Vitamin C was added to the media to induce matrix synthesis/deposition Cells were treated, (or not treated for the negative control) by three concentrations of the mineral extract composition or by a reference compound for a positive control (aminoguanidine). All the conditions were performed in triplicate. An excess of glucose was added to the cells and the cells were incubated at 37° C. for 15 days. At the end of the time, ECM proteins (mainly collagen) were extracted and purified and a fraction of each sample was loaded onto nitrocellulose in reproducible spots. The introduction of AGEs in collagen was shown using an anti-AGE antibody and it was labeled using a peroxidase conjugate and chemiluminescent reaction (ECL). Relative signal qualification was performed using a chemiluminescense imager.

albumin [2] = assay: AGE formation in the albumin/glucose model system (Example 11); assay type: biochemical
Method: Mineral extract composition (TL, ˜3% Solution) and a mogroside/mineral extract composition (SS II), Luo Han Guo Extract (L, Lot #MOG01-060502), Erythritol (E, Lot #07J241BP952) and Xylitol (X, Lot #H125T7G1) were kept at room temperature. […] The positive inhibitor control was aminoguanindine hydrochloride (AG) at 1 mM, (Sigma 396494). Protein glycation was detected by the increase of non-tryptophan fluorescence (excitation at 360 nm, emission at 460 nm) using microplate fluorometer Cytofluor 2350 (Millipore), as previously described (Argirova and Argirov, 2003). The glycation value for each experimental point was obtained by subtracting the background reading (samples without glucose) and was expressed as % of control (water).

albumin [3] = assay: Albumin/glucose anti-glycation assay (Example 1); assay type: biochemical; conditions: 1 mM; positive control; FIG. 1
Method: Each reaction mixture contained 10 mg/ml albumin (Sigma) in PBS with 500 mM glucose (Sigma G8270) in PBS. The negative control was 10 mg/ml albumin without glucose. A negative control was used for each experimental point. The positive control was 10 mg/ml albumin with 500 mM glucose with 1 mM aminoguanidine hydrochloride (Sigma 396494).
Each mineral extract composition was diluted in type I sterile water to 10 mg/ml sterilized by 0.22 micron filtration and incubated at dilutions 100 ug/ml, 10 ug/ml, 1 ug/ml and 0.1 ug/ml with the reaction mixture with or without glucose for 11 days at 37° C. in the presence of sodium azide.
Protein glycation was detected by the increase of non-tryptophan fluorescence (excitation at 360 nm, emission at 460 nm) using microplate fluorometer Cytofluor 2350 (Millipore), as described (Argirova and Argirov, 2003). The glycation value for each experimental point was obtained by subtracting the background reading (samples without glucose).

[4] = tested on: adult human dermal fibroblasts (aHDF); assay: Type I collagen sandwich ELISA in aHDF conditioned medium (Example 9); assay type: cell-based; conditions: all concentrations tested (0.5%, 0.1%, 0.05%, 0.01% w:v); 72 h
Method: A mineral extract composition (TL), Lot #100-151106, ˜3% Solution, and a mogroside/mineral extract composition as taught herein (SS II), mogrosides of Luo Han Guo Extract (Luo HG, Lot #MOG01-060502), Erythritol (Eryt, Lot #07241BP952) and Xylitol (Xylit, Lot #H125T7G1) were tested in the assay. All test materials were kept at room temperature. […] Water was the non-treated control and magnesium ascorbyl phosphate (MAP cat. #A8960, Sigma, St. Louis, Mo.) was the positive control. Cell culture conditioned media were harvested 72 h after the start of the experiment and tested for type I collagen by sandwich ELISA using affinity-purified antibodies, followed by streptavidin-avidin-HRP conjugate and ABTS, according to standard ELISA protocol (Dobak et al., 1994, Zhao et al, 2005). The colorimetric signal proportional to collagen content was measured with the BioRad microplate spectrophotometer 3550-UV at 405 nm.

human dermal fibroblasts = assay: MTT mitochondrial metabolism assay (Example 10); assay type: cell-based
Text: The objective of this Example was to test the effect of 4 samples: A mogroside/mineral extract composition (Labeled—1 in FIG. 6A), mineral extract composition (Labeled—2 in FIG. 6A), Sucralose liquid concentrate (Labeled—3 in FIG. 6A) and erythritol (Labeled—4 in FIG. 6A) on the mitochondrial metabolism I fibroblast populations, using MTT assay. MTT assay measures the activity of succinate dehydrogenase, a key enzyme in the respiratory electron transport chain in mitrochondria (Berridge & Tan, 1993).
Test materials-were mogroside/mineral extract composition as made above in Example 9, mineral extract composition (˜3% Solution), Sucralose Liquid Concentrate (25% Sucralose by weight)—lot #F2304B311LB and Erythritol (25% Aqueous Solution)—lot #RFA 2104-35, and were kept at room temperature. Materials were diluted in type I sterile water, filtered through a 0.22μ filter and assayed at final concentrations of 2.5%, 0.5% and 0.05% (v:v) on human dermal fibroblasts (Invitrogen) for 72 h in high glucose DMEM medium with 5% calf serum.
In order to measure mitochondrial metabolism in whole cell populations, at the end of the experiment, MTT (3-(4,5-dimethylthiazol-2-yl)-2,5-diphenyltetrazolium bromide, Sigma cat. #M 5655) was added to cell cultures and incubation was continued for an additional 2 hours. Culture media were then discarded and intracellular MTT reduction product formazan was solubilized in 90% isopropanol. The colorimetric signal proportional to the mitochondrial activity in the cell cultures was measured with the BioRad microplate spectrophotometer 3550-UV at 570 nm.

[5] = tested on: Normal human dermal fibroblasts; assay: Type I collagen sandwich ELISA in fibroblast conditioned medium (Example 4); assay type: cell-based; conditions: positive control; 5 days; FIG. 3
Method: Normal human dermal fibroblasts (passage 7, lot #7F1254, Cambrex, Walkersville, Md.) were seeded in a 96-well plate (plate #431) in DMEM medium (high glucose) containing 5% fetal calf serum, and grown to late subconfluent stage. Aqueous solutions of mineral extract composition were prepared in sterile Type I water and added to cell cultures at 1/20 dilution. Water was the non-treated control and magnesium ascorbyl phosphate (MAP cat. #A8960, Sigma, St. Louis, Mo.) was the positive control. Cell culture conditioned media were harvested 5 days after the start of the experiment and tested for type I collagen by sandwich ELISA using affinity-purified antibodies, followed by streptavidin-avidin-HRP conjugate and ABTS, according to standard ELISA protocol (Dobak et al., 1994, Zhao et al, 2005).
The colorimetric signal proportional to collagen content was measured with the BioRad microplate spectrophotometer 3550-UV at 405 nm. See FIG. 3, Effect of mineral extract composition on type I collagen in HDF-conditioned medium.

[6] = tested on: human dermal fibroblasts from a donor; assay: MTT mitochondrial metabolism assay (Example 3); assay type: cell-based
Method: The objective of this assay was to test the effect of mineral extract compositions (6 lots) on the mitochondrial metabolism in a cell culture population, using MTT assay. MTT assay measures the activity of succinate dehydrogenase, a key enzyme in the respiratory electron transport chain is mitochondria (Berridge & Tan, 1993).
Mineral extract compositions were diluted in type I sterile water to 10 mg/ml, sterilized by 0.22 micron filtration and incubated at dilutions 500 ug/ml, 50 ug/ml and 5 ug/ml and 0.5 ug/ml with 2,500 human dermal fibroblasts from a donor (Cascade Biologics, lot #061215-901) per well for 72 h in high glucose DMEM medium with 2.5% calf serum.
For mitochondrial metabolism measurement, at the end of the experiment, MTT (3-(4,5-dimethylthiazol-2-yl)-2,5-diphhenyltetrazolium bromide, Sigma cat. #M 5655) was added to cell cultures and incubated for 2 h. Culture media were then discarded and intracellular MTT reduction product formazan was solubilized in 100% DMSO. The colorimetric signal proportional to the mitochondrial activity in the cell cultures was measured with the BioRad microplate spectrophotometer 3550-UV at 570 nm.
The mitochondrial metabolism was standardized with regard to cell numbers by establishing the ratio of the two corresponding signals.

[7] = tested on: Clostridium collagenase IV; assay: Metalloproteinase (collagenase) activity, Enzcheck quenched fluorescent gelatin (Example 5); assay type: biochemical; conditions: 100 ug/ml; positive control
Method: Metalloproteinase (MP) (collagenase) activity was measured with Enzcheck kit from Molecular Probes (Invitrogen, IL) using quenched fluorescent gelatin and Clostridium collagenase IV, a generic metalloproteinase. Mineral extract composition, in dilutions of 500 ug/ml, 50 ug/ml and 5 ug/ml and 0.5 ug/ml, were incubated in the presence of collagenase substrate-quenched fluorescin-linked gelatin and in the presence of the proteolytic enzyme collagenase. Phenanthroline, a potent MP inhibitor was used as positive control at 100 ug/ml. The kinetics of the release of the digested, fluorescent gelatin were measured at excitation/emission wavelengths of 485/530 nm with Millipore Cytofluor 2350 microfluorometer.

[8] = 2.5%, 0.5% and 0.05% (v:v), 72 h, FIG. 6A

Cl.N=C(N)NN [Aminoguanidine, aminoguanidine hydrochloride]
% Control ([1]; First membrane): 62%
Average ([1]; First membrane): 33454 AU
Intensity (AU) ([1]; First membrane): 38328 AU and 37316 AU and 24719 AU
% Control ([1]; Membrane 2): 64%
Average ([1]; Membrane 2): 38752 AU
Intensity (AU) ([1]; Membrane 2): 38464 AU (2×) and 41333 AU (2×) and 36460 AU (2×)
glycation-inhibitory activity (albumin [2]; 1 mM, positive inhibitor control): strong glycation-inhibitory activity
inhibitory activity on albumin glycation (albumin [3]): good inhibitory activity

OC[C@@H](O)[C@@H](O)CO [Erythritol]
glycation-inhibitory effect (albumin [2]; at lower concentrations): moderate inhibitory effect
collagen-stimulatory activity [4]: no significant activity
effect on mitochondrial metabolism (MTT) (human dermal fibroblasts; [8]): no activity

O=C1O[C@H]([C@@H](O)CO)C([O-])=C1OP(=O)([O-])[O-].O=C1O[C@H]([C@@H](O)CO)C([O-])=C1OP(=O)([O-])[O-].[Mg+2].[Mg+2].[Mg+2] [MAP, magnesium ascorbyl phosphate]
stimulation of collagen I [5]: Strong stimulation

OC[C@H]1O[C@H](O[C@]2(CCl)O[C@H](CCl)[C@@H](O)[C@@H]2O)[C@H](O)[C@@H](O)[C@H]1Cl [Sucralose]
effect on mitochondrial metabolism (MTT) (human dermal fibroblasts; [8]): inhibited cell metabolism

OC[C@@H](O)[C@H](O)[C@@H](O)CO [Xylitol]
glycation-inhibitory effect (albumin [2]; all concentrations tested (0.5%, 0.1%, 0.05%, 0.01% w:v), FIG. 7): no effect
collagen-stimulatory activity [4]: no significant activity

CN(CC(=O)O)C(=N)N [creatine]
stimulation of mitochondrial metabolism ([6]; 500 ug/ml, 72 h): 6.3%

c1cnc2c(c1)ccc1cccnc12 [phenanthroline, Phenanthroline]
MP activity [7]: totally inhibited

bFGF: basic fibroblast growth factor, positive control
sensitivity of fibroblast mitochondrial metabolism ([6]; results not shown): not sensitive
effect on mitochondrial metabolism (MTT) (human dermal fibroblasts; 15 nM, positive control): metabolic stimulation
